Counter-ions that a name gives are not always drawn. Like-named read-outs stand apart in the source and are kept apart here.
Key:
[1] = tested on: LS174T colon cancer cells; assay: LS174T cell proliferation assay; assay type: cell-based; parameters: effects on LS174T colon cancer cell proliferation (Table 3): unit not given here; conditions: for inhibition at 1 µM / inhibition at 10 µM / inhibition at 0.1 µM: Homo sapiens, LS174T
Protocol: Cell proliferation assay. LS174T cells were grown in RPMI medium (Mediatech) supplemented with 5% fetal bovine serum and 1% penicillin/streptomycin. For cell proliferation assays, 3×10^4 cells/well growing in 12-well plates were treated with DMSO or inhibitors. The cell numbers and viability were analyzed by Vi-Cell Cell Viability Analyzer after 4 days. The IC50 values were calculated with GraphPad Prim 5.

[2] = Table 1, 1 μM, read-out: inhibition of proliferation (%) of colon cancer LS174T cells
[3] = Table 1, 10 μM, read-out: inhibition of proliferation (%) of colon cancer LS174T cells
[4] = Table 2, 100 nM, read-out: inhibition of cell proliferation (%) of colon cancer LS174T cells
[5] = Table 2, 1 μM, read-out: inhibition of cell proliferation (%) of colon cancer LS174T cells
[6] = Table 2, 10 μM, read-out: inhibition of cell proliferation (%) of colon cancer LS174T cells
[7] = 1 μM, read-out: inhibition of LS174T colon cancer cell proliferation

Row | melting point [°C] | SMILES | inhibition at 1 µM [1, 2] [%] | inhibition at 10 µM [1, 3] [%] | inhibition at 1 µM [1, 5] [%] | inhibition at 10 µM [1, 6] [%] | further results
1 | 148 to 150 | O=C1CCCCN1c1ccc(C#Cc2c(F)cccc2F)cc1 [Compound 4a, 1-(4-((2,6-Difluorophenyl)ethynyl)phenyl)piperidin-2-one] | 6.4 | 68.1 |  |  | 
2 | 144 to 145 | Fc1cccc(F)c1C#Cc1ccc(N2CCOCC2)cc1 [Compound 4b, 4-(4-((2,6-Difluorophenyl)ethynyl)phenyl)morpholine] | 13 | 32.1 |  |  | 
3 | 126 to 128 | CN1CCN(c2ccc(C#Cc3c(F)cccc3F)cc2)CC1 [Compound 4c, 1-(4-((2,6-Difluorophenyl)ethynyl)phenyl)-4-methylpiperazine] | 19.9 | 99.6 |  |  | 
4 | 122 to 124 | Fc1cccc(F)c1C#Cc1ccc(-n2cccc2)cc1 [Compound 4d, 1-(4-((2,6-Difluorophenyl)ethynyl)phenyl)-1H-pyrrole] | 77.5 | 96.7 |  |  | activity in a cell proliferation assay ([1]; 100 nM): considerably diminished activity; activity in a cell proliferation assay ([1]; 1 μM): comparable to 4-((2,6-difluorophenyl)ethynyl)-N,N-dimethylaniline (2); inhibition at 0.1 µM ([1]; Table 1, 100 nM, read-out: inhibition of proliferation (%) of colon cancer LS174T cells): 11%
5 | 124 to 126 | Cc1ccc(C)n1-c1ccc(C#Cc2c(F)cccc2F)cc1 [Compound 4e, 1-(4-((2,6-Difluorophenyl)ethynyl)phenyl)-2,5-dimethyl-1H-pyrrole] | 20.9 | 78.8 |  |  | 
6 | 120 to 122 | CN(C)c1ccc(C#Cc2c(F)cccc2F)nc1 [Compound 5a, 6-((2,6-Difluorophenyl)ethynyl)-N,N-dimethylpyridin-3-amine] |  |  | 68.9 ± 1.3 | 85.2 ± 3.8 | inhibition at 0.1 µM [1, 4]: 15.1 ± 7.4%
7 | 120 to 122 | Fc1cccc(F)c1C#Cc1ccc2nccc(Cl)c2c1 [Compound 5aa, 4-Chloro-6-((2,6-difluorophenyl)ethynyl)quinoline] |  |  | 43.8 ± 10.8 | 89.7 ± 4.3 | 
8 | 110 to 112 | CN(C)c1ccc(C#Cc2c(F)cccc2F)cn1 [Compound 5b, 5-((2,6-Difluorophenyl)ethynyl)-N,N-dimethylpyridin-2-amine] |  |  | 77.9 ± 7 | 83.6 ± 7.8 | inhibition at 1 µM [1, 7]: > 75%; inhibition at 0.1 µM [1, 4]: 0%
9 | 148 to 150 | Fc1cccc(F)c1C#Cc1ccc2c(Cl)ccnc2c1 [Compound 5bb, 4-Chloro-7-((2,6-difluorophenyl)ethynyl)quinoline] |  |  | 23.1 ± 8.3 | 70.8 ± 4.8 | 
10 |  | Cn1ccc2cc(C#Cc3c(F)cccc3F)ccc21 [Compound 5f, 5-((2,6-Difluorophenyl)ethynyl)-1-methyl-1H-indole] |  |  | 77.7 ± 13.6 | 95.2 ± 1 | inhibition at 1 µM [1, 7]: > 75%; inhibition at 0.1 µM [1, 4]: 3 ± 5.6%
11 |  | Fc1cccc(F)c1C#Cc1cnc2[nH]ccc2c1 [Compound 5l, 5-((2,6-Difluorephenyl)ethynyl)-1H-pyrrolo[2,3-b]pyridine] |  |  |  |  | inhibition of cell proliferation (%) of colon cancer LS174T cells ([1]; Table 2, 1 μM): 17.3 ± 12.0%; inhibition of cell proliferation (%) of colon cancer LS174T cells ([1]; Table 2, 10 μM): 77.9 ± 8.9%
12 |  | Nc1ccc2ncc(C#Cc3c(F)cccc3F)cc2c1 [Compound 5r, 3-((2,6-Ditfluorophenyl)ethynyl)quinolin-6-amine] |  |  |  |  | inhibition of cell proliferation (%) of colon cancer LS174T cells ([1]; Table 2, 10 μM): 9.2 ± 15.7%
13 |  | CN(C)c1ccc(C#Cc2c(F)cncc2F)cc1 [Compound 7d, 4-((3,5-Difluoropyridin-4-yl)ethynyl)-N,N-dimethylaniline] |  |  |  |  | effects on LS174T colon cancer cell proliferation (Table 3) ([1]; 30 nM): 16.7; effects on LS174T colon cancer cell proliferation (Table 3) ([1]; 100 nM): 20.4; effects on LS174T colon cancer cell proliferation (Table 3) ([1]; 300 nM): 60.6

Row | SMILES | melting point [°C] | inhibition at 1 µM [1, 2] [%] | inhibition at 10 µM [1, 3] [%] | inhibition at 1 µM [1, 5] [%] | inhibition at 10 µM [1, 6] [%] | further results
14 | CN1CCN(c2ncc(C#Cc3c(F)cccc3F)c3ccccc23)CC1 (as salt: hydrochloride) [Compound 5pp, 4-((2,6-Difluorophenyl)ethynyl)-1-(4-methylpiperazin-1-yl)isoquinoline] | 70 to 72 |  |  |  |  | 

From patent US10449186B2, “Phenylethynyl-substituted benzenes and heterocycles for the treatment of cancer” (UNIVERSITY OF KENTUCKY RESEARCH FOUNDATION, priority 2017, dated 2019)
